Data set [1] deals with Human immunodeficiency virus 1. The data set can be described thus: Antiviral activity against HIV-1 clinical isolate X4-89BZ167 infected in human CEMx174 5.25M7 cells assessed as reduction in p24 antigen level measured after 4 days by ELISA. The data set is classed as functional, organism-based. Conditions: Human immunodeficiency virus 1, clinical isolate X4-89BZ167, CEMx174 5.25M7, 96 h.

Data set [2] concerns Human immunodeficiency virus 1. Description: Antiviral activity against HIV-1 clinical isolate R5-91US-4 infected in human CEMx174 5.25M7 cells assessed as reduction in p24 antigen level measured after 4 days by ELISA. Conditions: Human immunodeficiency virus 1, clinical isolate R5-91US-4, CEMx174 5.25M7, 96 h. The data set is classed as functional, organism-based.
The test system of data set [3] is Human immunodeficiency virus 1. The data set can be described thus: Antiviral activity against HIV-1 clinical isolate R5-J32228M4 infected in human CEMx174 5.25M7 cells assessed as reduction in p24 antigen level measured after 4 days by ELISA. The format is functional, organism-based. Conditions: Human immunodeficiency virus 1, clinical isolate R5-J32228M4, CEMx174 5.25M7, 96 h. For orientation: An ELISA detects its analyte on a solid surface through an enzyme-linked reagent.

The test system of data set [4] is Human immunodeficiency virus 1. The data set can be described thus: Antiviral activity against HIV-1 Bal-R5 infected in human CEMx174 5.25M7 cells assessed as reduction in p24 antigen level measured after 4 days by ELISA. The data set is classed as functional, organism-based. Conditions: Human immunodeficiency virus 1, Bal-R5, CEMx174 5.25M7, 96 h.
The test system of data set [5] is Human immunodeficiency virus 1. The data set can be described thus: Antiviral activity against HIV-1 clinical isolate X4-92UG024 infected in human CEMx174 5.25M7 cells assessed as reduction in p24 antigen level measured after 4 days by ELISA. The data set is classed as functional, organism-based. Conditions: Human immunodeficiency virus 1, clinical isolate X4-92UG024, CEMx174 5.25M7, 96 h.

Data set [6] has as its target C-C chemokine receptor type 5 (Homo sapiens, UniProt P51681). Description: Antagonist activity at CCR5 (unknown origin) expressed in HEK293 cells co-expressing Galpha16 assessed as intracellular calcium change incubated for 60 mins by Fluo-4 AM calcium flux based FLIPR assay. The data set is classed as functional, cell-based. (Calcium assays in cells follow changes in intracellular calcium, usually with a dye or a luminescent sensor.)

For data set [7], the system named is Human immunodeficiency virus 1. Description: Antiviral activity against HIV-1 clinical isolate 97 TH-NP1525 infected in human CEMx174 5.25M7 cells assessed as reduction in p24 antigen level measured after 4 days by ELISA. The data set is classed as functional, organism-based. The settings on record: Human immunodeficiency virus 1, clinical isolate 97 TH-NP1525, CEMx174 5.25M7, 96 h.

Data set [8] addresses Envelope glycoprotein gp160 (Human immunodeficiency virus 1) (UniProt Q72502). Description: Binding affinity to HIV1 GP41 using GP41 NHR derived N39 peptide at 100 uM incubated for 30 mins by PAGE gel electrophoresis analysis.
Data set [9] can be described thus: Proteolytic stability in rat kidney incubated upto 240 mins by RP-UHPLC analysis. The data set is classed as ADME, tissue-based. Conditions: 4 h.
The nature of data set [10]: Proteolytic stability in rat liver assessed as parent compound remaining incubated for 4 hrs by RP-UHPLC analysis. The data set is classed as ADME, tissue-based. The settings on record: read-out: Stability.
For data set [11], the target named is Envelope glycoprotein gp160 (Human immunodeficiency virus 1) (UniProt Q72502). Description: Binding affinity to HIV1 GP41 using GP41 NHR derived N39 peptide assessed as change in entropy by isothermal titration calorimetry. A general note: In ITC the heat of successive injections is recorded.
Data set [12] shares this target. Description: Binding affinity to HIV1 GP41 using GP41 NHR derived N39 peptide assessed as melting temperature incubated for 30 mins by circular dichroism spectroscopy.
Data set [13] shares this target. The data set can be described thus: Binding affinity to HIV1 GP41 using GP41 NHR derived N39 peptide assessed as binding constant by isothermal titration calorimetry.
For data set [14] the target is unchanged. Description: Binding affinity to HIV1 GP41 using GP41 NHR derived N39 peptide assessed as change in enthalpy by isothermal titration calorimetry.

pEC50, pIC50: −log10 of the molar value. Active and inactive are the calls of the source. The calls are words filed in the database; no cut-off is given here. Side chains are listed from the residue outwards. Peptide text beside a SMILES is read from it. * marks the point of attachment. PEG24 = NCCOCCOCCOCCOCCOCCOCCOCCOCCOCCOCCOCCOCCOCCOCCOCCOCCOCCOCCOCCOCCOCCOCCOCCOCCC(=O)O; X2 = CC(=O)N1CCC(C(=O)N(CCCN2C3CCC2CC(NS(=O)(=O)c2ccc(C(=O)*)cc2)C3)c2ccc(C)c(Cl)c2)CC1; X1 = CC(=O)N1CCC(C(=O)N(CCCN2CCC(Cc3ccc(C(=O)*)cc3)CC2)c2ccc(C)c(Cl)c2)CC1; PEG12 = NCCOCCOCCOCCOCCOCCOCCOCCOCCOCCOCCOCCOCCC(=O)O

By pEC50 is commonly meant −log10 of the EC50, conventionally taken in molar units. Broadly, the pIC50 is the negative decadic logarithm of the IC50, by convention in mol/L.

Sequence of C-C chemokine receptor type 5 (P51681 whole entry): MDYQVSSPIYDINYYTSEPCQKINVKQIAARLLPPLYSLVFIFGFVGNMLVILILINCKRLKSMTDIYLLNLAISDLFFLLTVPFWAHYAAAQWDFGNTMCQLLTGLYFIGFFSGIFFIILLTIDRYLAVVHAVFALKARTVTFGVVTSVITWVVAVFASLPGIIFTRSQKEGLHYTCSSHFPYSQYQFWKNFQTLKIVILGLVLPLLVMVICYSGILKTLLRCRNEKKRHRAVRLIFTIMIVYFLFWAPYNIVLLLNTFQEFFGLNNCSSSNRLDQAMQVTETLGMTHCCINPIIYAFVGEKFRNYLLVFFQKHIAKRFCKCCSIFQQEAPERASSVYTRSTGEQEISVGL

For the compound `CC(=O)N1CCC(C(=O)N(CCCN2CCC(Cc3ccc(C(N)=O)cc3)CC2)c2ccc(C)c(Cl)c2)CC1`, the pEC50 in data set [1] is under 6.52; in data set [2], 7.92; in data set [3], 6.79; in [4], 8.04; in data set [5], under 6.52; in data set [7] it was under 6.52. Besides, in [6], the pIC50 is 9.08.
Take `CC[C@H](C)[C@H](NC(C)=O)C(=O)N[C@@H](CCC(=O)O)C(=O)N[C@@H](CCC(=O)O)C(=O)N[C@@H](CC(C)C)C(=O)N[C@H](C(=O)N[C@@H](CCCNC(=N)N)C(=O)N[C@@H](C)C(=O)N[C@@H](C)C(=O)N[C@@H](CCC(N)=O)C(=O)N[C@@H](CCC(=O)O)C(=O)N[C@@H](CCC(N)=O)C(=O)N[C@@H](CCC(N)=O)C(=O)N[C@@H](CCCNC(=N)N)C(=O)N[C@@H](CCCCN)C(=O)N[C@@H](CC(N)=O)C(=O)N[C@@H](CCC(=O)O)C(=O)N[C@@H](CCC(=O)O)C(=O)N[C@@H](C)C(=O)N[C@@H](CC(C)C)C(=O)N[C@@H](CCCNC(=N)N)C(=O)N[C@@H](CCC(=O)O)C(=O)N[C@@H](CC(C)C)C(=O)N[C@@H](CCCCNC(=O)CCOCCOCCOCCOCCOCCOCCOCCOCCOCCOCCOCCOCCNC(=O)c1ccc(S(=O)(=O)NC2CC3CCC(C2)N3CCCN(C(=O)C2CCN(C(C)=O)CC2)c2ccc(C)c(Cl)c2)cc1)C(N)=O)[C@@H](C)CC` (some centres not stated) (Ac-IEELIRAAQEQQRKNEEALRELK([PEG12-X2])-NH2): the outcome in data set [8] was Active. Moreover, the Stability entry in data set [9] was “Stable”. Further, the pEC50 is 8.53 in [1]; 9.00 in [2]; 7.83 in data set [3]; 9.80 in data set [4]; 8.91 in data set [5]; 9.00 in data set [7]. Also, in data set [10], the remaining at 4 h was over 72%. The deltaS in [11] was -27.3 cal/mol/deg. Also, in data set [6], the pIC50 is 7.99. The Tm in data set [12] was 56 °C. Further, the K in [13] is 1.97 10^5/M. For the same compound, the deltaH in [14] was -1.5 10^4cal/mol.
Consider `CC[C@H](C)[C@H](NC(=O)[C@H](CCCCN)NC(=O)[C@H](CCC(N)=O)NC(=O)[C@H](CCC(=O)O)NC(=O)[C@H](Cc1c[nH]c2ccccc12)NC(C)=O)C(=O)N[C@@H](CCC(=O)O)C(=O)N[C@@H](CCC(=O)O)C(=O)N[C@@H](CC(C)C)C(=O)N[C@@H](CC(C)C)C(=O)N[C@@H](CCCCN)C(=O)N[C@@H](CCCCN)C(=O)N[C@@H](C)C(=O)N[C@@H](CCC(=O)O)C(=O)N[C@@H](CCC(=O)O)C(=O)N[C@@H](CCC(N)=O)C(=O)N[C@@H](CCC(N)=O)C(=O)N[C@@H](CCCCN)C(=O)N[C@@H](CCCCN)C(=O)N[C@@H](CC(N)=O)C(=O)N[C@@H](CCC(=O)O)C(=O)N[C@@H](CCC(=O)O)C(=O)N[C@@H](CCC(=O)O)C(=O)N[C@@H](CC(C)C)C(=O)N[C@@H](CCCCN)C(=O)N[C@@H](CCCCN)C(=O)N[C@@H](CC(C)C)C(=O)N[C@@H](CCC(=O)O)C(=O)N[C@@H](CCCCN)C(=O)N[C@@H](CCCCNC(=O)CCOCCOCCOCCOCCOCCOCCOCCOCCOCCOCCOCCOCCOCCOCCOCCOCCOCCOCCOCCOCCOCCOCCOCCOCCNC(=O)c1ccc(CC2CCN(CCCN(C(=O)C3CCN(C(C)=O)CC3)c3ccc(C)c(Cl)c3)CC2)cc1)C(N)=O` (Ac-WEQKIEELLKKAEEQQKKNEEELKKLEKK([PEG24-X1])-NH2), for which the pEC50 in data set [4] is 9.92.
Take Ac-IEELIRAAQEQQRKNEEALREL-NH2: the pEC50 in data set [1] is 7.20; in data set [2], 6.56; in data set [3], under 6.60; in [4] it was 8.35; in [5], 7.12; in data set [7], 8.43. Moreover, in data set [11], the deltaS is -6.92 cal/mol/deg. Further, the negative logarithm of the IC50 (pIC50) in data set [6] was under 5.00. For the same compound, the K in data set [13] was 8.29 10^5/M. In data set [14], the deltaH is -1 10^4cal/mol.
As for Ac-WEQKIEELLKKAEEQQKKNEEELKKLEK-NH2, the pEC50 in data set [4] was 8.61.
Consider enfuvirtide, for which the figures for the pEC50 in [1], in data set [5] and in [7] were 7.32, 7.61 and 8.60, respectively. For the same compound, the remaining at 4 h in data set [10] is 45%.

Values taken from ChEMBL document CHEMBL5360545, “Multitargeted drug design strategy for discovery of short-peptide-based HIV-1 entry inhibitors with high potency” (Eur J Med Chem, 2023).
